Results reported in ChEMBL document CHEMBL5465560, “Selectivity Literature for EUbOPEN Chemogenomic Library” (2024).

What was measured:
Details in all cases: at 10 µM
[1] = molecular target: T1, Cyclin-dependent kinase 11A (Homo sapiens) (UniProt Q9UQ88); test: Selectivity interaction (KinomeScan (DiscoverX)) EUB0000229b CDK11A
T1 sequence (whole entry): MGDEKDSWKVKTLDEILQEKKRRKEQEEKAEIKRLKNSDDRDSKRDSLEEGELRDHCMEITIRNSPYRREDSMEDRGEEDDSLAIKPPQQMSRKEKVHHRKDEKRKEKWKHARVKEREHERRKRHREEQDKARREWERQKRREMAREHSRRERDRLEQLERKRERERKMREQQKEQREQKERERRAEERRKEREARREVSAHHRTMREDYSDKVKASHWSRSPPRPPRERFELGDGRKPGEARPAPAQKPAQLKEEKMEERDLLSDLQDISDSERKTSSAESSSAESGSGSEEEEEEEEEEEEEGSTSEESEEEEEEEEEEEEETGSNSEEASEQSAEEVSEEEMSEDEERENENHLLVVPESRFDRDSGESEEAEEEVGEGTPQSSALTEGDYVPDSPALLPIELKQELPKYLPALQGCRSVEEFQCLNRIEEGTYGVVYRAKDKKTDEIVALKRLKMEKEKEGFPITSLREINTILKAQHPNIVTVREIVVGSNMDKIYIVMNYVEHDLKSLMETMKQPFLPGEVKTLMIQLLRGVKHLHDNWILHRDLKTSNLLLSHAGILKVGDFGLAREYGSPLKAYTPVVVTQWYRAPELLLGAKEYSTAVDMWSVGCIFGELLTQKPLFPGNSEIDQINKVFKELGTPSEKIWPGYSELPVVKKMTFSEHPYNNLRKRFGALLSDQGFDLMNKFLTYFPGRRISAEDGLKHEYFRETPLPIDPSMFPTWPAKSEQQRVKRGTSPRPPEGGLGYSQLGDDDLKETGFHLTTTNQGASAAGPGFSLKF

[2] = molecular target: Tyrosine-protein kinase SYK (Homo sapiens, UniProt P43405); test: Selectivity interaction (KinomeScan (DiscoverX)) EUB0000655a SYK
[3] = molecular target: T2, Ephrin type-A receptor 3 (Homo sapiens) (UniProt P29320); test: Selectivity interaction (KinomeScan (DiscoverX)) EUB0000595a EPHA3
T2 sequence (whole entry): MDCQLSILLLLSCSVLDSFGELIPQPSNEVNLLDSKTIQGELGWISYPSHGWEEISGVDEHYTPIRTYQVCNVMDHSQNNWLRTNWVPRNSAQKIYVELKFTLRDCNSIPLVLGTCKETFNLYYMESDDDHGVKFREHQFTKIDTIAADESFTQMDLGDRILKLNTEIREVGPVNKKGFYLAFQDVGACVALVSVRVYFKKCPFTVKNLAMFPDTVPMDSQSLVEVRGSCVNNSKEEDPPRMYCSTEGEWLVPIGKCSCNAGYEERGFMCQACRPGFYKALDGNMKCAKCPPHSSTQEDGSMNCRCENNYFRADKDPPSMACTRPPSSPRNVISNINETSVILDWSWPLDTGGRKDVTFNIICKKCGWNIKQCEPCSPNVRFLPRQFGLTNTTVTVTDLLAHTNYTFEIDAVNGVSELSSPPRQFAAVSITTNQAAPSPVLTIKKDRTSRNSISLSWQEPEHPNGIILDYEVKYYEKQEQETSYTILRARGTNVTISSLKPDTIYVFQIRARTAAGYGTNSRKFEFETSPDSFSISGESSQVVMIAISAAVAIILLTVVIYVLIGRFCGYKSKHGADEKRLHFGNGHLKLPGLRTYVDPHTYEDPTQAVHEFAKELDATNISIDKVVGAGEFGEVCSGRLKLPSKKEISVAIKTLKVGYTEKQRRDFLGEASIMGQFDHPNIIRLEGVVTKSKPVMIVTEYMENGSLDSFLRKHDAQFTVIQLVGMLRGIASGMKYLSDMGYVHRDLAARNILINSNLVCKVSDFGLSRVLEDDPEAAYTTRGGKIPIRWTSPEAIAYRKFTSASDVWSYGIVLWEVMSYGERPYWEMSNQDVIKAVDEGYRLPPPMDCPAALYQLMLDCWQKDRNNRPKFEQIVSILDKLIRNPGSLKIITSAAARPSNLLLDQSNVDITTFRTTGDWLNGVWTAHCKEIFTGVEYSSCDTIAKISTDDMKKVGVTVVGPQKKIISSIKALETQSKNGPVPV

[4] = molecular target: T3, Mitogen-activated protein kinase kinase kinase 3 (Homo sapiens) (UniProt Q99759); test: Selectivity interaction (KinomeScan (DiscoverX)) EUB0000595a MAP3K3
T3 sequence (whole entry): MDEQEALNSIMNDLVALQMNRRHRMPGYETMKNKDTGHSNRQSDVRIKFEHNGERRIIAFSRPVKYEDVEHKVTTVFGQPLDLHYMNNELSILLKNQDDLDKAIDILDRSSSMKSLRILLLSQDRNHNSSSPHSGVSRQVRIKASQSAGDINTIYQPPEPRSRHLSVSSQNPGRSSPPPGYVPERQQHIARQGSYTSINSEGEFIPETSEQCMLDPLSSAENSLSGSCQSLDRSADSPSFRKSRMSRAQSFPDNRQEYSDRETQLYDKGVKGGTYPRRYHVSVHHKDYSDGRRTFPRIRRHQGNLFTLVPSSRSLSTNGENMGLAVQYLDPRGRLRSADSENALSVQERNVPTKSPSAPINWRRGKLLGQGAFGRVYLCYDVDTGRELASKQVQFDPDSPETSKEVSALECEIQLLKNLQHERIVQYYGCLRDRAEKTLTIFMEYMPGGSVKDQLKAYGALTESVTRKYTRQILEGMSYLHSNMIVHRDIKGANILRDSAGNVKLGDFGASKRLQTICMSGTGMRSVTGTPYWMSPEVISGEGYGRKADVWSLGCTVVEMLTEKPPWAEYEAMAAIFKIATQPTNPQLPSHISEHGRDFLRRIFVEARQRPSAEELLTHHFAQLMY

COc1cc(N(C)c2ccnc3ccc(C(F)(F)F)cc23)cc(OC)c1OC
% binding [1]: 97%

CN(C)CCOc1ccc(-c2nc(-c3ccncc3)c(-c3ccc4c(c3)CC/C4=N\O)[nH]2)cc1
% of control [2]: 100%

COCC(=O)NC/C=C/c1ccc2ncnc(Nc3ccc(Oc4ccc(C)nc4)c(C)c3)c2c1 [CP-724714]
% of control [3]: 97% | % of control [4]: 100%
